Measured values taken from US20210040062A1, “AZOLE-SUBSTITUTED PYRIDINE COMPOUND” (TAISHO PHARMACEUTICAL CO., LTD., priority 2016, published 2021).

Assays:
human CYP4F2 = biological target: T1, human CYP4F2 (Homo sapiens, UniProt P78329); assay: CYP4F2 inhibition test (Test Example 1); type: biochemical; details: Escherichia coli membrane fraction expressing human CYP4F2, 2.5 μM luciferine derivative, room temperature 60 minutes, luminescence
T1 construct: host or cells: Escherichia coli (membrane fraction)
T1 sequence (P78329 5-520): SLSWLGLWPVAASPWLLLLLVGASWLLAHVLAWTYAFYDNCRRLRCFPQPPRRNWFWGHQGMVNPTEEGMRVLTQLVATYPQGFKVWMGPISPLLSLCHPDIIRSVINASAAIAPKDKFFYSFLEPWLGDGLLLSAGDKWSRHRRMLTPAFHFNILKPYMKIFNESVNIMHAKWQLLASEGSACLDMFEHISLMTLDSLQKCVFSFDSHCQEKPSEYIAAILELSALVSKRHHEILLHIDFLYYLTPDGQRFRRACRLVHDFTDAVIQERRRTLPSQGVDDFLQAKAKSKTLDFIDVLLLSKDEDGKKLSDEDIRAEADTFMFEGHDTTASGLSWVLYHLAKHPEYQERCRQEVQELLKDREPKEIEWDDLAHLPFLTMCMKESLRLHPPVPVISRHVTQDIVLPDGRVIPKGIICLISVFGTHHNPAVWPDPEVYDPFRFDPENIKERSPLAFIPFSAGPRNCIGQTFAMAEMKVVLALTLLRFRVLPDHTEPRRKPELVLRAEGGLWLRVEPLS
Procedure, shortened: (§1)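 Luminescent read-out after adding luciferin detection reagent to a 60 min room-temperature reaction of compound with human CYP-expressing E. coli membrane fraction (100 μg/mL). Substrate and buffer differ: 60 μM luciferin derivative in Tris pH 7.5 with NADPH regeneration for CYP4A11; 2.5 μM in KPO4 pH 7.4 with 1 mM NADPH for CYP4F2.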

human CYP4A11 = biological target: T2, human CYP4A11 (Homo sapiens, UniProt Q02928); assay: CYP4A11 inhibition test (Test Example 1); type: biochemical; details: Escherichia coli membrane fraction expressing human CYP4A11, 60 μM luciferine derivative, room temperature 60 minutes, luminescence
T2 construct: host or cells: Escherichia coli (membrane fraction)
T2 sequence (Q02928 5-519): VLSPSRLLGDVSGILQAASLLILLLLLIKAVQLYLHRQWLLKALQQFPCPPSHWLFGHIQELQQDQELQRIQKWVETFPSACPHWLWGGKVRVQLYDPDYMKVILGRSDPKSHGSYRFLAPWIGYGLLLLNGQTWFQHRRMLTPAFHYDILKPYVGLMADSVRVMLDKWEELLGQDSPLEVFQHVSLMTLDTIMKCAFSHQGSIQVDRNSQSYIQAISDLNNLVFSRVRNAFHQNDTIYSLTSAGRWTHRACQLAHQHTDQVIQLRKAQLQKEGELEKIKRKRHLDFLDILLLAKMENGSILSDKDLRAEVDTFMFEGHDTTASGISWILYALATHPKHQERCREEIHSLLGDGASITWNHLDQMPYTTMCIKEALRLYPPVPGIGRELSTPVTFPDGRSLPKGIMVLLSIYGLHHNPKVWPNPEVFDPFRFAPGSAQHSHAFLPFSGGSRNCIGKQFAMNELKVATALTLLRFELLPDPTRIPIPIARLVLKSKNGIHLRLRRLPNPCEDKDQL
Procedure, shortened: as §1

SMILES | IC50 (human CYP4F2) [nM] | IC50 (human CYP4A11) [nM]
CC(=O)N1CCC(COc2ccc(-c3ccns3)nc2)CC1 [Example 42-1, 1-(4-{[6-(1,2-Thiazol-5-yl)pyridin-3-yl]oxymethyl}piperidin-1-yl)ethanone] | 44 | 110
CS(=N)(=O)c1cccc(COc2ccc(-c3ccn[nH]3)nc2)c1 (single isomer, unassigned) [Example 50-2, Imino-methyl-oxo-(3-{[6-(1H-pyrazol-5-yl)pyridin-3-yl]oxymethyl}phenyl)-λ^6-sulfane] | 1200 | 250
COCc1cn[nH]c1-c1ccc(OCc2cccc(S(C)(=O)=O)c2)cn1 [Example 49-2, 2-[4-(Methoxymethyl)-1H-pyrazol-5-yl]-5-[(3-methylsulfonylphenyl)methoxy]pyridine] | 28000 | 13000
CC(C)(C)OC(=O)NCCC(=O)N1CCC[C@@H](COc2ccc(-c3ccn[nH]3)nc2)C1 [Example 3-18] | 18 | 50
CS(=O)(=O)c1ccccc1OCCOc1ccc(-c2ccn[nH]2)nc1 [Example 14-14] | 1400 | 6100
O=C(NCCC(=O)N1CCC[C@@H](COc2ccc(-c3ccn[nH]3)nc2)C1)C1CCCC1 [Example 4-10] | 20 | 56
FC(F)(F)c1cccc(COc2ccc(-c3ccn[nH]3)nc2)c1 [Example 25-29] | 88 | 67
CC(=O)N1C[C@@H]2[C@@H](COc3ccc(-c4ccn[nH]4)nc3)[C@@H]2C1 [Example 14-2] | 16 | 2800
COc1cn[nH]c1-c1ccc(OCc2cccc(S(C)(=O)=O)c2)cn1 [Example 24-8] | 2600 | 440
Clc1cc(Cl)cc(COc2ccc(-c3ccn[nH]3)nc2)c1 [54-10] | 290 | 68
CC(=O)N1CCC(COc2ccc(-c3c[nH]nn3)nc2)CC1 [Example 43-1, 1-(4-{[6-(1H-Triazol-4-yl)pyridin-3-yl]oxymethyl}piperidin-1-yl)ethanone] | 3100 | 4800
Fc1cc(COc2ccc(-c3ccn[nH]3)nc2)cc(F)c1F [54-13] | 170 | 480
CC(=O)N1CC[C@H](CCOc2ccc(-c3ccn[nH]3)nc2)C1 [Example 13-9] | 220 | 2000
O=C(N1CCC1)N1CCC(COc2ccc(-c3ccn[nH]3)nc2)CC1 [Example 7-1, (Azetidin-1-yl)[4-({[6-(1H-pyrazol-5-yl)pyridin-3-yl]oxy}methyl)piperidin-1-yl]methanone] | 22 | 790
O=C(NCCC(=O)N1CCC[C@@H](COc2ccc(-c3ccn[nH]3)nc2)C1)c1ccccc1 [Example 3-45] | 24 | 70
CC(C)OC(=O)NCCC(=O)N1CCC[C@@H](COc2ccc(-c3ccn[nH]3)nc2)C1 [Example 1-32] | 27 | 67
CC1(C)Cc2cc(COc3ccc(-c4ccn[nH]4)nc3)cc(Cl)c2O1 [Example 25-13] | 190 | 36
O=S1(=O)CCCC(COc2ccc(-c3cn[nH]c3)nc2)C1 (stereo not drawn) [Example 43-4] | 5400 | 390
CC(C)C(=O)N1CCC(COc2ccc(-c3ccn[nH]3)nc2)CC1 [Example 1-2] | 180 | 530

Continued by falling IC50 (human CYP4F2), values first:

IC50 (human CYP4F2) [nM] | IC50 (human CYP4A11) [nM] | SMILES
16000 | 5700 | CS(=O)(=O)c1cccc(COc2ccc(-n3cnnc3)nc2)c1 [Example 45-6]
9000 | 2400 | CS(=O)(=O)c1cccc(COc2ccc(-c3c[nH]nn3)nc2)c1 [Example 44-1, 5-[(3-Methylsulfonylphenyl)methoxy]-2-(1H-triazol-4-yl)pyridine]
4700 | 3200 | CC(=O)N1CCCC1C(=O)N1CCC[C@@H](COc2ccc(-c3ccn[nH]3)nc2)C1 (stereo partly drawn) [Example 3-23]
2800 | 1400 | CC(=O)N1CCC[C@@H]1CCOc1ccc(-c2ccn[nH]2)nc1 [Example 20-3, 1-[(2R)-2-(2-{[6-(1H-Pyrazol-5-yl)pyridin-3-yl]oxy}ethyl)pyrrolidin-1-yl]ethan-1-one]
2000 | 33 | CS(=O)(=O)N1CCC[C@H](COc2ccc(-c3cn[nH]c3)nc2)C1 [Example 46-3]
1500 | 78 | CS(=O)(=O)c1ccccc1CCOc1ccc(-c2ccn[nH]2)nc1 [Example 14-15]
1400 | 39 | CS(=O)(=O)N1CCC[C@@H](COc2ccc(-c3cn[nH]c3)nc2)C1 [Example 46-4]
830 | 1100 | CC1(C(=O)N2CCC(COc3ccc(-c4ccn[nH]4)nc3)CC2)CC1 [Example 2-1, (1-Methylcyclopropyl) [4-({[6-(1H-pyrazol-5-yl)pyridin-3-yl]oxy}methyl)piperidin-1-yl]methanone]
640 | 70 | CC(=O)N1CCC[C@@H](COc2ccc(-c3ccn[nH]3)nc2)C1 [Example 1-6]
640 | 3600 | CCOc1cc(COc2ccc(-c3ccn[nH]3)nc2)cc(OCC)c1 [54-12]
320 | 890 | CN(C)C(=O)NCCC(=O)N1CCC[C@@H](COc2ccc(-c3ccn[nH]3)nc2)C1 [Example 1-35]
240 | 220 | CC(=O)N1CCC(COc2ccc(-c3cn[nH]c3)nc2)CC1 [Example 39-1, 1-(4-{[6-(1H-Pyrazol-4-yl)pyridin-3-yl]oxymethyl}piperidin-1-yl)ethanone]
210 | 6100 | CC(=O)Nc1cc(COc2ccc(-c3ccn[nH]3)nc2)ccn1 [Example 14-6]
180 | 2400 | CC(=O)N(C)[C@H]1CC[C@@H](Oc2ccc(-c3ccn[nH]3)nc2)CC1 [Example 20-4]
150 | 360 | CC(C)NC(=O)N1CCC(CCOc2ccc(-c3ccn[nH]3)nc2)CC1 [Example 9-3]
110 | 48 | CN(C)S(=O)(=O)N1CC[C@@H](COc2cnc(-c3ccn[nH]3)c(F)c2)C1 [Example 10-18]
73 | 100 | C[C@@H](CNC(=O)OC(C)(C)C)C(=O)N1CCC[C@@H](COc2ccc(-c3ccn[nH]3)nc2)C1 [Example 2-13]
63 | 370 | CN(C)C(=O)N1CCC(CCOc2ccc(-c3ccn[nH]3)nc2)CC1 [Example 9-2]
50 | 310 | COC(=O)N1CCC[C@H](COc2ccc(-c3ccn[nH]3)nc2)C1 [Example 1-13]
46 | 620 | Nc1cccc(COc2ccc(-c3ccn[nH]3)nc2)c1 [Example 19-1, 3-({[6-(1H-Pyrazol-5-yl)pyridin-3-yl]oxy}methyl)aniline]
45 | 21 | Cc1cn[nH]c1-c1ccc(OC[C@@H]2CCCN(S(=O)(=O)C3CC3)C2)cn1 [Example 10-16]
3.7 | 190 | CC(C)CC(=O)N1CC(S(=O)(=O)N2CCC[C@H](COc3ccc(-c4ccn[nH]4)nc3)C2)C1 [Example 1-19]
2.5 | 17 | O=C(OCc1ccccc1)N1CC(S(=O)(=O)N2CCC[C@@H](COc3ccc(-c4ccn[nH]4)nc3)C2)C1 [Example 10-6]
